Laboratory results published in article PMC9827630, “Intra-colony venom diversity contributes to maintaining eusociality in a cooperatively breeding ant” (BMC Biology, 2023).
Where a SMILES comes first, the peptide text is derived from it. Bridges are numbered along the chain shown (N, C = ends). Where no end group is shown, it is not given here.

How the values were obtained:
[1] = tested on: Cryptococcus neoformans var. grubii H99; ATCC 208821; test: Antifungal growth inhibition (CO-ADD); format: cell-based; settings: for Max response ± SEM: percentage growth inhibition, difference in absorbance 600 and 570 nm after resazurin, 35°C 2 h, mean ± SEM; for MIC: sigmoidal dose-response fit of growth inhibition, resazurin read-out
Procedure: (§1) Antimicrobial and cytotoxicity assays were performed by CO-ADD (The Community for Antimicrobial Drug Discovery, Institute for Molecular Bioscience, The University of Queensland). […] Percentage growth inhibition was calculated using negative controls (media only) and positive controls (no peptide). For the hemolysis assays, human whole blood was washed three times with 3 volumes of 0.9% NaCl and then resuspended in 0.9% NaCl to a concentration of 0.5 × 10^8 cells/mL. Cells were incubated for 1 h at 37°C with or without the peptide. After incubation, plates were centrifuged at 1000 g for 10 min to pellet cells and debris and hemolysis determined by measuring the supernatant absorbance at 405 nm.

[2] = tested on: Candida albicans ATCC 90028; test: Antifungal growth inhibition (CO-ADD); format: cell-based; settings: absorbance at 530 nm; for Max response ± SEM: percentage growth inhibition, mean ± SEM; for MIC: sigmoidal dose-response fit of growth inhibition
Procedure: as §1

[3] = tested on: Staphylococcus aureus ATCC 43300; test: Antimicrobial growth inhibition (CO-ADD); format: cell-based; settings: for Max response ± SEM: percentage growth inhibition, mean ± SEM; for Max response ± SEM / MIC: absorbance at 600 nm; for MIC: sigmoidal dose-response fit of growth inhibition
Procedure: as §1

[4] = tested on: Klebsiella pneumoniae ATCC 700603; test: Antimicrobial growth inhibition (CO-ADD); format: cell-based; settings: absorbance at 600 nm; for Max response ± SEM: percentage growth inhibition, mean ± SEM; for MIC: sigmoidal dose-response fit of growth inhibition
Procedure: as §1

[5] = tested on: Escherichia coli ATCC 25922; test: Antimicrobial growth inhibition (CO-ADD); format: cell-based; settings: absorbance at 600 nm; for Max response ± SEM: percentage growth inhibition, mean ± SEM; for MIC: sigmoidal dose-response fit of growth inhibition
Procedure: as §1

[6] = tested on: Pseudomonas aeruginosa ATCC 27853; test: Antimicrobial growth inhibition (CO-ADD); format: cell-based; settings: absorbance at 600 nm; for Max response ± SEM: percentage growth inhibition, mean ± SEM; for MIC: sigmoidal dose-response fit of growth inhibition
Procedure: as §1

[7] = tested on: Acinetobacter baumannii ATCC 19606; test: Antimicrobial growth inhibition (CO-ADD); format: cell-based; settings: absorbance at 600 nm; for Max response ± SEM: percentage growth inhibition, mean ± SEM; for MIC: sigmoidal dose-response fit of growth inhibition
Procedure: as §1

[8] = tested on: MM96L cells (melanoma cell line); test: Cell viability assay, resazurin; format: cell-based; settings: 100 μM peptide
Procedure: (§2) In addition to the cytotoxicity assays performed by CO-ADD, we screened the synthetic peptides for toxicity in cell viability assays using HAP1, MM96L, and HEK293T cells. peptides were reconstituted in 100% DMSO then diluted in cell media (HAP1: IMDM (Sigma Aldrich) with 10% FBS and 1% Penicillin/Streptomycin (P/S); MM96L: RPMI (Gibco) with 10% FBS, 1% P/S and 1% GlutaMAX (Gibco); HEK293T: DMEM high glucose (Gibco), with 10% FBS and 1% P/S. Trypsinized cells ([…]) were seeded in each well of a 96-well plate. 0.01 to 1000 μM peptide was added to each well after 24 h, and the cells incubated for an additional 74 h. After incubation, the medium was aspirated from each well and 150 μL of fresh medium containing a 0.002% solution of resazurin (Sigma-Aldrich) was added to the wells and incubated for 4 h at 37 °C. The absorbance was measured at 570 nm using a microplate spectrophotometer (FLUOstar Omega, BMG Labtech, Germany). Percentage cell viability at concentrations of 10 and 100 μM peptide were compared with negative control by one-way ANOVA Dunnett’s multiple comparisons test (GraphPad Prism8).

[9] = tested on: HEK293T cells; test: Cell viability assay, resazurin; format: cell-based; settings: 100 μM peptide
Procedure: as §2

[10] = tested on: panel of microbes; test: Antimicrobial screening, summary over the panel of microbes; format: cell-based; settings: all strains of the panel (for Rm54a and Rm55a: strains other than S. aureus)
Procedure: as §1

[11] = tested on: Female fruit flies (D. melanogaster strain Canton-S); test: Fruit fly injection assay (lethality, paralysis, climbing); format: in vivo, Drosophila melanogaster
Procedure: Female fruit flies (D. melanogaster strain Canton-S) were injected four to six days post-emergence. Female flies were used because their larger size makes injection easier. Groups of eight female flies were assayed in triplicate for each dose tested. Injection needles were formed from glass capillary tubes (#3-000-203-G/X, Drummond, Birmingham, AL, USA) using a micropipette puller (Sutter Instrument Co. Model P-97), with the fine tip manually trimmed afterwards using scissors. Needles then were filled with mineral oil, connected to a Nanoliter 2000 microinjector ([…], Bensenville, IL USA) equipped with a foot pedal, and ~1 μL of peptide solution or water aspirated. Each group of flies were immobilized by cooling for approximately 2 min on ice, and then decanted on the top of the ‘injection stage’, a petri dish filled with ice. Under a dissecting microscope, each fly was carefully impaled on the lateral thorax behind the wing, and 50.6 nL of venom peptide or water was injected. After injection, each group of flies were returned to their 5 mL plastic tube at room temperature and their behavior observed.

[12] = tested on: HEK; test: Ion permeability HEK; format: cell-based, Human; settings: ions listed as permeant; - = none
[13] = tested on: F11 (mouse neuroblastoma × rat dorsal root ganglion (DRG) neuron hybrid) cells; test: Calcium imaging of F11 cells (FLIPR); format: cell-based; settings: increase in [Ca2+]i, max-min fluorescence over 300 s; read-out: EC50 (F11 cells, Table S2)
Procedure: F11 (mouse neuroblastoma × rat dorsal root ganglion (DRG) neuron hybrid) cells were cultured as previously described. Cells were maintained on Ham’s F12 media supplemented with 10 % fetal bovine serum, 100 μM hypoxanthine, 0.4 μM aminopterin, and 16 μM thymidine (Hybri-MaxTM, Sigma Aldrich). 384-well imaging plates (Corning, Lowell, MA, USA) were seeded 48 h prior to imaging resulting in 90 – 95% confluence at imaging. Cells were incubated for 30 min with Calcium 4 assay component A, as per the manufacturer’s instructions (Molecular Devices, Sunnyvale, CA) in physiological salt solution (PSS; composition in mM: 140 NaCl, 11.5 D-glucose, 5.9 KCl, 1.4 MgCl2, 1.2 NaH2PO4, 5 NaHCO3, 1.8 CaCl2, 10 HEPES) at 37°C. […] Signals were read every second for 10 s before, and 300 s after, the addition of peptides in PSS supplemented with 0.1% bovine serum albumin. All data represent mean ± SEM of a representative assay in triplicate. Fluorescence changes on peptide addition were compared to addition of negative control solution (0.1% BSA in PSS). The resulting maximum-minimum fluorescence in the 300 s period after peptide addition was recorded as the response.

[14] = tested on: House crickets (Acheta domesticus); test: Insect incapacitation assay, house crickets; format: in vivo
Procedure: House crickets (A. domesticus; Pisces Live Food, QLD, Australia) (average mass 50 mg), were injected intra-abdominally with 40 nmol/g of each synthetic peptide (in 2 μL water). […] Lethality was assessed at 24 h. […] To calculate dose-response curves, a four-parameter Hill equation with variable Hill slope was fitted to the data (GraphPad Prism 8.02). All data are expressed as the mean ± standard error of the mean (SEM) and are representative of at least three independent data points. The percentage of crickets incapacitated by a dose of 40 nmol/g, was compared with negative control (water injection) by one-way ANOVA Dunnett’s multiple comparisons test (GraphPad Prism8).

[15] = tested on: F11; test: Ion permeability F11; format: cell-based, mouse; settings: ions listed as permeant; - = none
[16] = tested on: Human red blood cells; test: Hemolysis assay (CO-ADD); format: cell-based; settings: hemolysis, washed human blood 0.5 × 10^8 cells/mL in 0.9% NaCl, 1 h at 37°C, supernatant absorbance at 405 nm; mean ± SEM
Procedure: as §1

[17] = tested on: HAP1 cells; test: Cell viability assay, resazurin; format: cell-based
Procedure: as §2

[18] = tested on: Human embryonic kidney cells ATCC CRL-1573; test: Cytotoxicity assay (CO-ADD), resazurin; format: cell-based; settings: percentage growth inhibition, resazurin fluorescence, 37°C 5% CO2; mean ± SEM
Procedure: as §1

CC[C@H](C)[C@H](NC(=O)[C@H](CCC(=O)O)NC(=O)[C@H](CCC(N)=O)NC(=O)[C@H](CCSC)NC(=O)[C@H](CC(N)=O)NC(=O)[C@@H](N)CO)C(=O)N[C@@H](CCSC)C(=O)N[C@@H](CCCCN)C(=O)N[C@@H](CCCCN)C(=O)N[C@@H](CC(C)C)C(=O)N[C@H]1CSSC[C@@H](C(=O)N[C@@H](CCCCN)C(=O)N[C@@H](CCSC)C(=O)N[C@@H](CC(C)C)C(=O)NCC(=O)N[C@@H](CC(C)C)C(=O)O)NC(=O)[C@H](CCSC)NC(=O)[C@H](Cc2c[nH]c3ccccc23)NC(=O)[C@H](C)NC(=O)[C@@H]2CCCN2C(=O)[C@H](CCSC)NC(=O)[C@H](CCCCN)NC(=O)[C@H](CCCCN)NC(=O)[C@H](CC(=O)O)NC(=O)[C@H]([C@@H](C)O)NC1=O [Rm9a] (H-SNMQEIMKKLCTDKKMPAWMCKMLGL-OH; disulfide 11-21; N-terminus assumed)
Max response ± SEM [1]: -86 ± 5 | MIC [1]: >11 µM | Max response ± SEM [2]: 1 ± 2 | MIC [2]: >11 µM | Max response ± SEM [3]: 3 ± 5 | MIC [3]: >11 µM | Max response ± SEM [4]: 5 ± 2 | MIC [4]: >11 µM | Max response ± SEM [5]: 3 ± 2 | MIC [5]: >11 µM | Max response ± SEM [6]: 5 ± 3 | MIC [6]: >11 µM | Max response ± SEM [7]: 9 ± 0 | MIC [7]: >11 µM | Cytotoxicity against MM96L cells [8]: cytotoxic to both HEK293T and MM96L cells | Cytotoxicity against HEK293T cells [9]: cytotoxic to both HEK293T and MM96L cells | Growth inhibition over the microbial strains examined [10]: no inhibitory activity

VAPIVAMAGLGLFAAAVAGLDWLSKKV-NH2 [Rm1a]
Flies dead ([11]; 50 pmol/g injected, mean ± SD): 25.0 ± 12.5% | Flies paralyzed ([11]; 50 pmol/g injected, mean ± SD): 95.8 ± 7.2% | Instant death of flies ([11]; 5 nmol/g injected, groups of eight female flies in triplicate, mean ± SD): 100 ± 0% | LD50 5 min (dose required to kill 50% of flies 5 min after injection) ([11]; D. melanogaster, 5 min after injection): 0.17 nmol/g | PD50 5 min (dose required to paralyze 50% of flies within 5 min) ([11]; D. melanogaster, within 5 min): 23 pmol/g | Max response ± SEM [1]: 36 ± 7 | MIC [1]: >12 µM | Max response ± SEM [2]: 67 ± 4 | MIC [2]: >12 µM | ion permeability HEK [12]: Ca2+,Na+,Th+ | EC50 [13]: 5.7 µM | Lethality in crickets at lowest dose tested ([14]; 40 pmol/g, intra-abdominal injection, lethality assessed at 24 h): ultimately lethal | Incapacitation of crickets ([14]; 40 nmol/g, intra-abdominal injection, observed 30 min): able to incapacitate crickets | Onset of incapacitation in crickets ([14]; 40 and 4 nmol/g, delayed at lower doses): immediate | PD50 30 min (dose required to paralyze 50% of crickets 30 min after injection) ([14]; intra-abdominal injection, n = 3 per group): 0.3 nmol/g | Max response ± SEM [3]: -19 ± 7 | MIC [3]: >12 µM | Max response ± SEM [4]: 0 ± 2 | MIC [4]: >12 µM | Max response ± SEM [5]: 9 ± 3 | MIC [5]: >12 µM | Max response ± SEM [6]: -2 ± 9 | MIC [6]: >12 µM | Max response ± SEM [7]: 3 ± 2 | MIC [7]: >12 µM | ion permeability F11 [15]: Ca2+,Na+,Th+

LWPFLISLIPTVIDLARNL-NH2 [Rm54a]
Motor behavior (climbing assay) ([11]; 5 nmol/g injected, climbing assay 5 min after injection, significant versus control): disrupted motor behavior | Max response ± SEM [1]: -15 ± 2 | Max response ± SEM [2]: 10 ± 3 | Max response ± SEM [16]: 95 ± 6 | ion permeability HEK [12]: Ca2+,Na+,Th+ | Inhibition of S. aureus (in words) [3]: complete inhibition | Max response ± SEM [3]: 102 ± 1 | Max response ± SEM [4]: 10 ± 2 | Max response ± SEM [5]: 10 ± 1 | Max response ± SEM [6]: 16 ± 1 | Max response ± SEM [7]: 22 ± 3 | Cytotoxicity against MM96L cells [8]: not the melanoma cell line MM96L | Cytotoxicity to HAP cells [17]: cytotoxic to HAP cells | HAP cell viability ([17]; 10 μM peptide, n = 3 per group): significantly reduced HAP cell viability | Cytotoxicity against HEK293T cells [9]: cytotoxic against HEK293T cells | Growth inhibition over the microbial strains examined [10]: not affecting any of the other strains examined | ion permeability F11 [15]: Ca2+,Na+,Th+ | Max response ± SEM [18]: 95 ± 0
